Reference: patent US20230310356A1, “COMPOSITION FOR PREVENTING, AMELIORATING, OR TREATING BRAIN DAMAGE AND MILD COGNITIVE IMPAIRMENT COMPRISING GLUTAMINE AS EFFECTIVE COMPONENT” (INDUSTRY-ACADEMIC COOPERATION FOUNDATION GYEONGSANG …, priority 2020, published 2023)

Key:
corticosterone = assay: Change in plasma corticosterone level after CIS and glutamine supplementation; format: in vivo, mouse; settings: STR+Gln vs STR; glutamine 150 mg/kg of feed
Method: In the present invention, C57BL/6 male mice (7-weeks old, KOATECH, South Korea) were kept under standard conditions (i.e., temperature of 22 to 24° C., humidity of 50 to 70%, and 12-hour light/dark cycle with lighting on 6 AM), and the animals were allowed to have free access to diets and water. The animals used for the present invention were handled according to the protocol (GNU-161128-M0068) acknowledged by Gyeongsang National University Institutional Animal Care and Use Committee (GNU IACUC), which follows the guidelines of National Institutes of Health (NIH, Bethesda, MD, USA). Control (CTL) is a group which received normal diet (common diet with nutritional balance) without any stress, CTL+Gln group is a normal diet group supplemented with glutamine (150 mg/kg of feed) and without any stress, STR is a normal diet group under stress, and STR+Gln group is a normal diet group supplemented with glutamine (150 mg/kg of feed) under stress. The stress group (STR) was individually brought by force to a restrainer for 2 hours every day (i.e., between 2 PM and 4 PM) so that the animals are applied with chronic immobilization stress for 15 days.

[1] = system: stratum pyramidale CA1 in hippocampus; assay: Morphological change in hippocampus (Nissl staining, width of stratum pyramidale CA1) after CIS and glutamine supplementation; format: in vivo, mouse; settings: STR+Gln vs STR; glutamine 150 mg/kg of feed
Method: Control (CTL) is a group which received normal diet (common diet with nutritional balance) without any stress, CTL+Gln group is a normal diet group supplemented with glutamine (150 mg/kg of feed) and without any stress, STR is a normal diet group under stress, and STR+Gln group is a normal diet group supplemented with glutamine (150 mg/kg of feed) under stress. The stress group (STR) was individually brought by force to a restrainer for 2 hours every day (i.e., between 2 PM and 4 PM) so that the animals are applied with chronic immobilization stress for 15 days. Any morphological change in hippocampus caused by the application of chronic immobilization stress and glutamine supplementation was determined by brain tissue staining of hippocampal region. Specifically, a section (i.e., brain tissue specimen) obtained after mounting for 5 minutes in 0.1% cresyl violet which has been dissolved in 0.2% acetic acid followed by air-drying was stained. Stained section was washed, subsequently immersed for 30 seconds in 80% (v/v) ethanol, again immersed for 30 seconds in 90% (v/v) ethanol, and again immersed twice for 30 seconds in 95% (v/v) ethanol. It was again immersed twice for 30 seconds in 100% (v/v) ethanol for dehydration. […]

PSD-95 and synaptophysin = assay: Synaptic puncta by co-localization of PSD-95 and synaptophysin after CIS and glutamine supplementation; format: in vivo, mouse; settings: infralimbic cortex and hippocampal CA1 region (FIGS. 5E and 6F)
Method: Control (CTL) is a group which received normal diet (common diet with nutritional balance) without any stress, CTL+Gln group is a normal diet group supplemented with glutamine (150 mg/kg of feed) and without any stress, STR is a normal diet group under stress, and STR+Gln group is a normal diet group supplemented with glutamine (150 mg/kg of feed) under stress. The stress group (STR) was individually brought by force to a restrainer for 2 hours every day (i.e., between 2 PM and 4 PM) so that the animals are applied with chronic immobilization stress for 15 days. Twenty-four hours after applying the last stress, the mouse was anesthetized with avertin, and perfused with PBS (pH 7.4) and 4% formaldehyde. After that, the brain was removed, fixed, and cut to a thickness with 40 μm. It was then incubated overnight after the addition of each antibody, nNOS (sc-5302, 200 μg/ml, Santa Cruz, Dallas, TX, USA, 1:50), iNOS (sc-7271, 200 μg/ml, Santa Cruz, 1:20), p47phox (sc-17845, 200 μg/ml, Santa Cruz, 1:20), p67phox (15551-1-AP, 43 μg/150 μl, Proteintech, Rosemont, IL, USA, 1:100), PSD-95 (postsynaptic density-95) (ab12093, 1 mg/ml, Abcam, Cambridge, UK, 1: 200), and synaptophysin (ab14692, 0.65 mg/ml, Abcam, 1: 200). […]

[2] = system: 3×TG-AD female mouse (model of Alzheimer's disease); assay: ORT cognitive ability test in animal model of Alzheimer's disease with glutamine diet; format: in vivo; settings: 6-weel old compared to the 2-weeks old
Method: As an animal model for cognitive ability evaluation, a 7-weeks old 3×TG-AD female mouse (8 mice. model of Alzheimer's disease) and a C57BL/6 female mouse (10 mice, control) were selected. The animals of each type were divided into 2 groups, and each group was provided with regular animal feed (i.e., normal diet, ND) or glutamine feed (Gln). The glutamine diet group was allowed to consume the feed containing 150 mg glutamine/kg diet, from 2-months old stage to the end of test (i.e., 6 to 7-months old stage). Health state of the animal was checked by measuring, once a week, the bodyweight of the animal and food intake (FIG. 7A). Cognitive ability test of the mouse as an animal model established above was determined by ORT (object recognition test). The animal was habituated in a box for 2 days. On Day 3, it was allowed to explore two identical objects for 10 minutes. On Day 4, one of the two objects was replaced with a novel object, and then, the animal was allowed to explore further for 5 minutes (FIG. 7B). The time spent by animal for exploring after approaching within 1 cm from the periphery of both objects was measured. After carrying out the calculation using Formula (3) below, DI (discrimination index) was calculated and compared to each other. In the present invention, a different novel object was employed for carrying out each test. […]

NC(=O)CC[C@H](N)C(=O)O [glutamine]
plasma corticosterone level (corticosterone): statistically significant decrease
width of CA1-SP (stratum pyramidale CA1) [1]: restored
synaptic puncta (co-localization of PSD-95 and synaptophysin) (PSD-95 and synaptophysin): significantly increased
impairment in cognitive ability (object recognition ability, ORT) ([2]; 3×TG-AD glutamine diet group, 150 mg glutamine/kg diet): no significant impairment
decrease of DI value in ORT ([2]; 3×TG-AD group with glutamine diet, average from each individual): 0.1
